These results are taken from patent publication US4368267A, “Epoxidation of lower α-olefins” (priority 1980, dated 1983).

“And” between values parts separate entries of the source, which are not always exact repeats. Equal entries are not always repeated.

What all share (assay type): cell-based
The test system of test [1] is Methylococcus capsulatus strain MC. Put plainly: Stimulation of propylene epoxidation in cell suspensions. Conditions: propylene alone. As for the experimental part: (§1) The pH of the nutrient medium was adjusted to 7.0 by the addition of acid or base and 50 ml aliquots of the nutrient medium was charged into a plurality of 300 ml shake flasks. The shake flasks were inoculated with an inoculating loop of cells from an agar plate containing homogeneous colonies of the microorganisms on the plate (the purity of the isolates were confirmed by microscopic examination). The isolates had been maintained on agar plates under an atmosphere of methane and air having a 1:1 v/v gas ratio which had been transferred every two weeks. The gaseous phase of the inoculated flasks was then replaced with a gas mixture comprised of methane and air having a ratio of 1:1 on a v/v basis. The inoculated flasks were sealed air tight and were incubated on a rotary shaker of orbital radius 2.5 cm at 250 rpm and at 30° C. for two days until the turbidity in the medium had developed.
(§2) The cells were harvested by centrifugation at 10,000 ×g at 4° C. for 30 minutes. The cell pellet was washed twice with a 0.15 M phosphate buffer at a pH of 7.0 (containing 0.002 M MgCl2). The washed cells were then suspended in a 0.15 M phosphate buffer at pH 7.0.
(§3) A 0.5 ml aliquot of each washed cell suspension (2 mg cells) was put into 10 ml vials at 4° C. which were sealed with a rubber cap. The gaseous phase of the vials was removed with vacuum and then was replaced with a gas mixture of alkene and oxygen at a 1:1 v/v ratio. It was then incubated at 30° C. on a rotary shaker at 300 rpm. Samples of product (3 μl) were withdrawn periodically with a microsyringe and the products were analyzed by gas chromatography (ionization flame detector column).
(§4) Several experiments were carried out using a plurality of compounds capable of generating the necessary reducing power (NADH2 or NADPH2) required for the epoxidation of alkenes or dienes. These experiments were carried out using cell suspensions of methane grown methylotrophs using the procedure as described in Example 1 except that a stimulator compound was added to the reaction medium.

Test [2] deals with Methylosinus trichosporium OB3b (NRRL B-11,196). Put plainly: Stoichiometry of the epoxidation of propylene by a cell-suspension. Conditions: 3.6 μmoles propylene; 3.1 mg protein; 3 min. As for the experimental part:
As a comparison the stoichiometry of the epoxidation of propylene by a cell-suspension of Methylosinus trichosporium OB3b (NRRL B-11,196) was determined as follows. The reaction mixture (3.0 ml.) contained 0.05 M sodium phosphate buffer, pH 7.0 and 3.6 μmoles of propylene. The reaction was initiated by the injection of 0.1 ml. of cell-suspension (3.1 mg protein). A correction was made for the endogenous consumption of oxygen. The amount of oxygen consumed during the reaction (3 min.) was determined polarographically with a Clark oxygen electrode. The propylene consumed and the propylene oxide formed was estimated by gas chromatography. The propylene consumed was 0.29 μmoles, the oxygen consumed was 0.30 μmoles and the propylene oxide formed was 0.28 μmoles.

Test [3] has as its system Methylobacterium organophilum (CRL 26, NRRL B-11,222). Put plainly: Epoxidation/hydroxylation by washed cell suspensions. The settings on record: propylene alone. As for the experimental part:
as §1, §2, §3, §4

Test [4] concerns Methylobacter capsulatus Y (NRRL B-11,201). Put plainly: Methane hydroxylation and propylene epoxidation by washed cell suspensions. The protocol:
as §1, §2
(§5) A 0.5 ml aliquot of each washed cell suspension (2 mg cells) was put into 10 ml vials at 4° C. which were sealed with a rubber cap. […] It was then incubated at 30° C. on a rotary shaker at 300 rpm. Samples of product (3 μl) were withdrawn periodically with a microsyringe and the products were analyzed by gas chromatography (ionization flame detector column).
Several experiments were carried out using a plurality of compounds capable of generating the necessary reducing power (NADH2 or NADPH2) required for the epoxidation of alkenes or dienes. […]

Test [5] has as its system Methylococcus capsulatus (CRL M1, NRRL B-11,219). Put plainly: Oxidation/epoxidation by washed cell suspensions. Conditions: propylene alone (control); 3 Hr. As for the experimental part: as §1, with “The shake flasks were inoculated with an inoculating loop of cells from an agar plate containing homogeneous colonies of the microorganisms on the plate (the purity of the isolates were confirmed by microscopic examination).” left out
as §2, §3
The experimental procedure described in Example 1 was used to prepare washed cell suspensions of methane-grown microorganisms and the use of the same to oxidize or epoxidize the branched chain alkanes, alkenes and dienes.

The subject of test [6] is Methylosinus trichosporium OB3b (NRRL B-11,196). Put plainly: Methane hydroxylation and alkene epoxidation by washed cell suspensions. Conditions: for Propylene Oxide Formed: 3.6 mg cells; for Ability to hydroxylate methane or epoxidize C2 -C4 alkenes: methanol-grown washed cells. As for the experimental part:
as §1, with “The shake flasks were inoculated with an inoculating loop of cells from an agar plate containing homogeneous colonies of the microorganisms on the plate (the purity of the isolates were confirmed by microscopic examination).” left out
as §2
[…] The gaseous phase of the vials was removed with vacuum and then was replaced with a gas mixture of alkene and oxygen at a 1:1 v/v ratio. It was then incubated at 30° C. on a rotary shaker at 300 rpm. Samples of product (3 μl) were withdrawn periodically with a microsyringe and the products were analyzed by gas chromatography (ionization flame detector column).

For test [7], the system named is Methylosinus sporium 5 (NRRL B-11,197). The description is as above. Conditions: methane-grown washed cells, 30° C. As for the experimental part:
as §1, with “The shake flasks were inoculated with an inoculating loop of cells from an agar plate containing homogeneous colonies of the microorganisms on the plate (the purity of the isolates were confirmed by microscopic examination).” left out
as §2, §5

[8] abbreviates: methane-grown washed cells, 30° C.
Setting [9] is: Propylene + Methane + O2 (25:25:50 v/v), 15 minutes.

On to `C=CC` [Propylene], for which the “Rate of Product Formation (Propylene Oxide)” value in test [1] is 3.5 nmoles/hr/mg protein; in test [3] it was 10 nmoles/hr/mg protein; in test [4] (propylene alone), 2 nmoles/hr/mg protein. For the same compound, the Propylene Oxide Formed in test [2] amounted to 0.28 µmol; in test [6] (Propylene + Helium + O2 (25:25:50 v/v), 15 minutes) it was 1.6 µmol. The oxygen consumed in test [2] was 0.30 µmol. Moreover, the propylene consumed in test [2] was 0.29 µmol. The “Conversion rate, propylene to propylene oxide” value in test [4] (setting [8]) is reported as 1.5 μmole/hr/mg protein; in test [6] (setting [8]) it was 3.6 μmole/hr/mg protein; in test [7], 2.0 μmole/hr/mg protein. In addition, the “Epoxidation Rate, Propylene oxide” value in test [5] amounted to 3.9 μmoles/0.5 ml. The “Ability to hydroxylate methane or epoxidize C2 -C4 alkenes” value in test [6] is listed as “did not possess the ability”.

Regarding `C` [Methane], the “Propylene Oxide Formed” value in test [6] (setting [9]) was determined as 0.8 µmol. Moreover, the “% Inhibition of propylene epoxidation” value in test [6] (setting [9]) was 50%. The “Conversion rate, methane hydroxylation (methane to methanol)” value in test [6] (setting [8]) is 1.5 μmole/hr/mg protein; in test [7], 1.1 μmole/hr/mg protein and 1.8 μmole/hr/mg protein. Moreover, the “Ability to hydroxylate methane or epoxidize C2 -C4 alkenes” value in test [6] is listed as “did not possess the ability”.
